Results from PubChem BioAssay (NCI).
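Interpolation was linear, between the two tested concentrations surrounding the appropriate level; five concentrations were tested over 48 hours in 96-well plates. GI50 marks 50% less growth. At the TGI there is no net growth.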

How the values were obtained:
Assay in all cases: growth of human tumour cells (NCI), 48 h
BT-549 breast = tested on: BT-549 breast
OVCAR-3 ovarian = tested on: OVCAR-3 ovarian
HS 578T breast = tested on: HS 578T breast
MDA-MB-435 = tested on: MDA-MB-435
SK-MEL-2 melanoma = tested on: SK-MEL-2 melanoma
OVCAR-5 ovarian = tested on: OVCAR-5 ovarian
SK-OV-3 ovarian = tested on: SK-OV-3 ovarian
LOX IMVI melanoma = tested on: LOX IMVI melanoma
HOP-92 NSCLC = tested on: HOP-92 NSCLC
TK-10 renal = tested on: TK-10 renal
M14 melanoma = tested on: M14 melanoma
A549 NSCLC = tested on: A549 NSCLC
HCT-116 colon = tested on: HCT-116 colon
SNB-19 CNS = tested on: SNB-19 CNS
KM12 colon = tested on: KM12 colon
U251 CNS = tested on: U251 CNS
NCI/ADR-RES ovarian = tested on: NCI/ADR-RES ovarian
SN12C renal = tested on: SN12C renal
CAKI-1 renal = tested on: CAKI-1 renal
CCRF-CEM leukemia = tested on: CCRF-CEM leukemia
HOP-62 NSCLC = tested on: HOP-62 NSCLC
786-0 renal = tested on: 786-0 renal
SF-539 CNS = tested on: SF-539 CNS
NCI-H23 lung = tested on: NCI-H23 lung
SK-MEL-5 melanoma = tested on: SK-MEL-5 melanoma
NCI-H226 lung = tested on: NCI-H226 lung
HCT-15 colon = tested on: HCT-15 colon
SK-MEL-28 melanoma = tested on: SK-MEL-28 melanoma
OVCAR-8 ovarian = tested on: OVCAR-8 ovarian
PC-3 prostate = tested on: PC-3 prostate
A498 renal = tested on: A498 renal
NCI-H522 lung = tested on: NCI-H522 lung
MOLT-4 leukemia = tested on: MOLT-4 leukemia
UO-31 renal = tested on: UO-31 renal
HL-60(TB) leukemia = tested on: HL-60(TB) leukemia
SNB-75 CNS = tested on: SNB-75 CNS
T-47D breast = tested on: T-47D breast
ACHN renal = tested on: ACHN renal
UACC-257 melanoma = tested on: UACC-257 melanoma
RXF 393 renal = tested on: RXF 393 renal
MCF7 breast = tested on: MCF7 breast
EKVX NSCLC = tested on: EKVX NSCLC
SF-295 CNS = tested on: SF-295 CNS
K-562 leukemia = tested on: K-562 leukemia
DU-145 prostate = tested on: DU-145 prostate
SF-268 CNS = tested on: SF-268 CNS
COLO 205 colon = tested on: COLO 205 colon
MALME-3M melanoma = tested on: MALME-3M melanoma
SR leukemia = tested on: SR leukemia
HCC-2998 colon = tested on: HCC-2998 colon
OVCAR-4 ovarian = tested on: OVCAR-4 ovarian
NCI-H460 lung = tested on: NCI-H460 lung
SW-620 colon = tested on: SW-620 colon
UACC-62 melanoma = tested on: UACC-62 melanoma
HT29 colon = tested on: HT29 colon
IGROV1 ovarian = tested on: IGROV1 ovarian
RPMI-8226 leukemia = tested on: RPMI-8226 leukemia
MDA-MB-231 breast = tested on: MDA-MB-231 breast

Structure (SMILES): CC(C)(C)c1cc(C(C)(C)C)cc(S(=O)(=O)Nc2cc3ccccc3cc2C(=O)NCCN)c1
- GI50 (BT-549 breast): 1.67 µM
- TGI (BT-549 breast): 3.09 µM
- GI50 (OVCAR-3 ovarian): 1.75 µM
- TGI (OVCAR-3 ovarian): 3.21 µM
- GI50 (HS 578T breast): 2.17 µM
- TGI (HS 578T breast): 4.89 µM
- GI50 (MDA-MB-435): 1.68 µM
- TGI (MDA-MB-435): 3.18 µM
- GI50 (SK-MEL-2 melanoma): 1.92 µM
- TGI (SK-MEL-2 melanoma): 3.87 µM
- GI50 (OVCAR-5 ovarian): 1.94 µM
- TGI (OVCAR-5 ovarian): 4.49 µM
- GI50 (SK-OV-3 ovarian): 2.04 µM
- TGI (SK-OV-3 ovarian): 4.51 µM
- GI50 (LOX IMVI melanoma): 1.6 µM
- TGI (LOX IMVI melanoma): 3.02 µM
- GI50 (HOP-92 NSCLC): 1.73 µM
- TGI (HOP-92 NSCLC): 3.24 µM
- GI50 (TK-10 renal): 1.78 µM
- TGI (TK-10 renal): 3.26 µM
- GI50 (M14 melanoma): 1.71 µM
- TGI (M14 melanoma): 3.42 µM
- GI50 (A549 NSCLC): 1.95 µM
- TGI (A549 NSCLC): 3.77 µM
- GI50 (HCT-116 colon): 1.75 µM
- TGI (HCT-116 colon): 3.22 µM
- GI50 (SNB-19 CNS): 1.89 µM
- TGI (SNB-19 CNS): 3.52 µM
- GI50 (KM12 colon): 1.79 µM
- TGI (KM12 colon): 3.37 µM
- GI50 (U251 CNS): 1.75 µM
- TGI (U251 CNS): 3.15 µM
- GI50 (NCI/ADR-RES ovarian): 2.37 µM
- TGI (NCI/ADR-RES ovarian): 6.54 µM
- GI50 (SN12C renal): 1.86 µM
- TGI (SN12C renal): 3.6 µM
- GI50 (CAKI-1 renal): 2.75 µM
- TGI (CAKI-1 renal): 9.33 µM
- GI50 (CCRF-CEM leukemia): 2.55 µM
- TGI (CCRF-CEM leukemia): 6.41 µM
- GI50 (HOP-62 NSCLC): 1.57 µM
- TGI (HOP-62 NSCLC): 3.01 µM
- GI50 (786-0 renal): 1.67 µM
- TGI (786-0 renal): 3.09 µM
- GI50 (SF-539 CNS): 1.77 µM
- TGI (SF-539 CNS): 3.28 µM
- GI50 (NCI-H23 lung): 1.76 µM
- TGI (NCI-H23 lung): 3.53 µM
- GI50 (SK-MEL-5 melanoma): 1.75 µM
- TGI (SK-MEL-5 melanoma): 3.13 µM
- GI50 (NCI-H226 lung): 2.16 µM
- TGI (NCI-H226 lung): 4.28 µM
- GI50 (HCT-15 colon): 1.64 µM
- TGI (HCT-15 colon): 3.04 µM
- GI50 (SK-MEL-28 melanoma): 1.87 µM
- TGI (SK-MEL-28 melanoma): 3.64 µM
- GI50 (OVCAR-8 ovarian): 2.2 µM
- TGI (OVCAR-8 ovarian): 4.87 µM
- GI50 (PC-3 prostate): 2.4 µM
- TGI (PC-3 prostate): 6.23 µM
- GI50 (A498 renal): 1.77 µM
- TGI (A498 renal): 3.3 µM
- GI50 (NCI-H522 lung): 1.8 µM
- TGI (NCI-H522 lung): 3.72 µM
- GI50 (MOLT-4 leukemia): 2.32 µM
- TGI (MOLT-4 leukemia): 5.77 µM
- GI50 (UO-31 renal): 1.55 µM
- TGI (UO-31 renal): 2.98 µM
- GI50 (HL-60(TB) leukemia): 2.04 µM
- TGI (HL-60(TB) leukemia): 4.22 µM
- GI50 (SNB-75 CNS): 1.58 µM
- TGI (SNB-75 CNS): 4.16 µM
- GI50 (T-47D breast): 1.7 µM
- TGI (T-47D breast): 3.6 µM
- GI50 (ACHN renal): 1.7 µM
- TGI (ACHN renal): 3.18 µM
- GI50 (UACC-257 melanoma): 2.09 µM
- TGI (UACC-257 melanoma): 4.02 µM
- GI50 (RXF 393 renal): 1.79 µM
- TGI (RXF 393 renal): 3.18 µM
- GI50 (MCF7 breast): 1.53 µM
- TGI (MCF7 breast): 2.95 µM
- GI50 (EKVX NSCLC): 1.45 µM
- TGI (EKVX NSCLC): 2.88 µM
- GI50 (SF-295 CNS): 1.72 µM
- TGI (SF-295 CNS): 3.17 µM
- GI50 (K-562 leukemia): 2.16 µM
- TGI (K-562 leukemia): 4.85 µM
- GI50 (DU-145 prostate): 1.82 µM
- TGI (DU-145 prostate): 3.47 µM
- GI50 (SF-268 CNS): 1.68 µM
- TGI (SF-268 CNS): 3.35 µM
- GI50 (COLO 205 colon): 1.82 µM
- TGI (COLO 205 colon): 3.37 µM
- GI50 (MALME-3M melanoma): 1.54 µM
- TGI (MALME-3M melanoma): 3.13 µM
- GI50 (SR leukemia): 1.9 µM
- TGI (SR leukemia): 4.43 µM
- GI50 (HCC-2998 colon): 1.75 µM
- TGI (HCC-2998 colon): 3.24 µM
- GI50 (OVCAR-4 ovarian): 1.86 µM
- TGI (OVCAR-4 ovarian): 3.94 µM
- GI50 (NCI-H460 lung): 2.1 µM
- TGI (NCI-H460 lung): 4.12 µM
- GI50 (SW-620 colon): 1.93 µM
- TGI (SW-620 colon): 3.95 µM
- GI50 (UACC-62 melanoma): 1.82 µM
- TGI (UACC-62 melanoma): 3.4 µM
- GI50 (HT29 colon): 1.93 µM
- TGI (HT29 colon): 3.95 µM

Structure (SMILES): O=C1C=C(C2=CC(=O)C(=O)c3ccccc32)c2ccccc2C1=O
- TGI (BT-549 breast): > 100 µM
- TGI (OVCAR-3 ovarian): 20.7 µM
- TGI (HS 578T breast): 90.7 µM
- TGI (SK-MEL-2 melanoma): 72.3 µM
- TGI (IGROV1 ovarian): > 100 µM
- TGI (OVCAR-5 ovarian): 44.2 µM
- TGI (SK-OV-3 ovarian): > 100 µM
- TGI (LOX IMVI melanoma): > 100 µM
- TGI (HOP-92 NSCLC): 39.3 µM
- TGI (TK-10 renal): 75.4 µM
- TGI (M14 melanoma): > 100 µM
- TGI (A549 NSCLC): > 100 µM
- TGI (HCT-116 colon): 50.1 µM
- TGI (SNB-19 CNS): 53.2 µM
- TGI (RPMI-8226 leukemia): 46.2 µM
- TGI (KM12 colon): 39.8 µM
- TGI (U251 CNS): > 100 µM
- TGI (NCI/ADR-RES ovarian): > 100 µM
- TGI (SN12C renal): > 100 µM
- TGI (CAKI-1 renal): 47.8 µM
- TGI (CCRF-CEM leukemia): > 100 µM
- TGI (HOP-62 NSCLC): 64.6 µM
- TGI (786-0 renal): > 100 µM
- TGI (SF-539 CNS): 82.4 µM
- TGI (NCI-H23 lung): > 100 µM
- TGI (SK-MEL-5 melanoma): 8.17 µM
- TGI (NCI-H226 lung): > 100 µM
- TGI (MDA-MB-231 breast): 53.3 µM
- TGI (HCT-15 colon): > 100 µM
- TGI (SK-MEL-28 melanoma): > 100 µM
- TGI (OVCAR-8 ovarian): 75.7 µM
- TGI (PC-3 prostate): 37.3 µM
- TGI (A498 renal): > 100 µM
- TGI (NCI-H522 lung): > 100 µM
- TGI (MOLT-4 leukemia): 15.4 µM
- TGI (UO-31 renal): > 100 µM
- TGI (HL-60(TB) leukemia): > 100 µM
- TGI (SNB-75 CNS): 60.1 µM
- TGI (T-47D breast): 56.1 µM
- TGI (ACHN renal): > 100 µM
- TGI (UACC-257 melanoma): > 100 µM
- TGI (RXF 393 renal): > 100 µM
- TGI (MCF7 breast): 48.3 µM
- TGI (EKVX NSCLC): > 100 µM
- TGI (SF-295 CNS): 66.5 µM
- TGI (K-562 leukemia): > 100 µM
- TGI (DU-145 prostate): 29.4 µM
- TGI (SF-268 CNS): 48.3 µM
- TGI (COLO 205 colon): 38.9 µM
- TGI (MALME-3M melanoma): > 100 µM
- TGI (OVCAR-4 ovarian): > 100 µM
- TGI (SW-620 colon): 31.4 µM
- TGI (UACC-62 melanoma): > 100 µM
- TGI (HT29 colon): > 100 µM
